What was measured:
[1] = DPPH radical scavenging activity; conditions: for IC50: DPPH 0.1 mM in ethanol, 30 min at room temperature in the dark, absorbance at 517 nm, triplicates, read-out: DPPH Free Radical Scavenging Activity (IC50); for DPPH free-radical-scavenging activity compared with BHT: comparison with positive control BHT
Procedure: The DPPH (2,2-diphenyl-1-picrylhydrazyl) radical scavenging ability of the sample was conducted based on the method described by Kumagai et al. with minor modifications. The reaction mixture was with DPPH (0.1 mM, dissolved in ethanol) and various concentrations of sample in equal volumes, which was incubated at room temperature for 30 min in the dark. The absorbance of the mixture was measured at 517 nm using UV (UV-2600, UNICO Instrument Co. Ltd., Shanghai, China). The final concentrations of each compound in the wells were confined as 1000, 333, 111, 37.0, 12.3, 4.11, 1.37, and 0.46 μM. The ethanol and butylated hydroxytoluene (BHT), instead of samples, were used for a blank and positive control, respectively. Each assay was carried out in triplicates. IC50, the concentration of elimination of 50% DPPH radical scavenging activity, was measured by non-liner regression.

[2] = biological target: T1, Human recombinant COX-2 enzyme (Homo sapiens, UniProt P35354); test: COX-2 inhibitory activity assay (Cayman COX Fluorescent Inhibitor Screening Assay Kit); format: biochemical; conditions: 15 min pre-incubation, arachidonic acid substrate, fluorescence 530/595 nm, triplicates
T1 construct: purchased Cayman #700100
T1 sequence (P35354 18-604): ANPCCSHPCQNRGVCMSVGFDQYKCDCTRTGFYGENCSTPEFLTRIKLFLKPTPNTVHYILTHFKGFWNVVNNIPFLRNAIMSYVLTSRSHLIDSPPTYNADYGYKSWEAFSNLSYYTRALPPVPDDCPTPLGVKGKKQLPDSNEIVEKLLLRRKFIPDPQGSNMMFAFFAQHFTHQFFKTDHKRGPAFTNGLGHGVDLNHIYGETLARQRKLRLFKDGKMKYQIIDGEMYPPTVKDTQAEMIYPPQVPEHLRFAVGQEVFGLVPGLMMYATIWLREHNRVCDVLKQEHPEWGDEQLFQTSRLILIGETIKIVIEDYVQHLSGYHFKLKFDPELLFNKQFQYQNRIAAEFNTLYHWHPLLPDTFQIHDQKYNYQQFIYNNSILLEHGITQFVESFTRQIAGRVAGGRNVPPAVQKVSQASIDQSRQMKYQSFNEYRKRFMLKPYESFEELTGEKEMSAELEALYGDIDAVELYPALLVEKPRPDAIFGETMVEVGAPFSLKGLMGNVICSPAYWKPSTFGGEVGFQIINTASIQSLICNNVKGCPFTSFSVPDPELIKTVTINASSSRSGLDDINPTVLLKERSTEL
Procedure: The COX-2 inhibitory activity assay of sample was conducted according to a previously reported method. […] Human recombinant COX-2 enzyme was pre-incubated with inhibitors for 15 min at normal temperature, followed by the addition of heme and fluorometric substrate and incubation for another 15 min at normal temperature. The reaction was started by the addition of arachidonic acid and allowed to proceed for 2 min. […] Each assay was carried out in triplicates. IC50, was measured by non-liner regression.

[3] = set-up: method as in PMID 22061662; conditions: previous study; cited from earlier work

| Structure (SMILES) | IC50 [1] [µM] | IC50 [2] [µM] | DPPH free-radical-scavenging activity compared with BHT [1] | radical scavenging activity in comparison with vitamin C [3] |
| --- | --- | --- | --- | --- |
| Cc1cc(C(C)(C)C)c(O)c(C(C)(C)C)c1 [BHT, butylated hydroxytoluene, reference compound] | 170.3 ± 0.06 | – | – | – |
| COc1cc(O)c(C(=O)O)c(-c2c(C)cc(O)c3ncsc23)c1 [Compound 1, Altenusinoides A] | > 1000 | > 30 | – | – |
| COc1cc(O)c(C(=O)O)c(-c2cc(O)c3ncsc3c2C)c1 [Compound 2, altenusinoides B] | > 1000 | > 30 | – | – |
| COC(=O)Cc1cc(O)cc2scnc12 [Compound 3, methyl 2-(6-hydroxybenzothiazol-4-yl) acetate] | > 1000 | > 30 | – | – |
| COc1cc(O)c(C(=O)O)c(-c2cc(O)c(O)cc2C)c1 [Compound 4, Altenusin] | 10.7 ± 0.09 | > 30 | higher DPPH free-radical-scavenging activities than BHT | strong radical scavenging activity |
| COc1cc(O)cc(-c2cc(O)c(O)cc2C)c1 [Compound 5, 5′-methoxy-6-methyl-biphenyl-3,4,3′-triol] | 100.6 ± 0.025 | 9.5 ± 0.08 | higher DPPH free-radical-scavenging activities than BHT | strong radical scavenging activity |
| COc1cc(O)cc(C2=C(C)C[C@H](O)C2=O)c1 [Compound 6, (S)-alternariphent A1] | > 1000 | > 30 | – | – |

Source: PMC6278658, “Two New Altenusin/Thiazole Hybrids and a New Benzothiazole Derivative from the Marine Sponge-Derived Fungus Alternaria sp. SCSIOS02F49” (Molecules, 2018)
